# System: C57Bl/6J wild-type mice with rmTBI
# Test: Morris Water Maze assessment for spatial memory in rmTBI mice, intranasal zinc vs vehicle
# Format: in vivo
# Description: Subjects were C57Bl/6J wild-type mice that were 6 weeks of age at the time of the first stressor. All mice received rmTBI delivered using a system 100/200.
# For 7 days, stress groups were subject to a rotation of varied stressors, including: • 1. Deprivation of food, water, and enrichment for 8 hours. • 2. Exposure to soiled rat bedding in home cage. • 3. Exposure to bobcat urine in home cage. • 4. Forced swim in ice bath for 5 minutes. • 5. Home cage flooded with water. • 6. Home cage placed on orbital shaker for 5 minutes. • 7. Loud static noise for 1 hour. • 8. Restraint in conical Falcon tube for 1 hour.
# A second week of varied stressors was administered concurrently with rmTBI. The rmTBI closed-head injury was induced by Leica One Controlled Cortical Impact device with falling platform as in system 100, causing the mouse to rotate upon impact. Anesthetized mice received one mTBI every 48 hours over the course of 7 days for a total of 4 injuries. Immediately following injury, mice were intranasally administered either zinc treatment or vehicle control (water).
# Changes in behavior were also analyzed, using the Morris Water Maze assessment for spatial memory over 7 days. In this measure of learning and memory, the mouse is tested for the ability to locate a platform in a pool of water using visual cues. Days 1-6 had 3 trials, and days 2, 4 and 6 used a hidden platform for trial 3. Day 7 comprised a 24-hr probe trial.
substance,measurement,setting,value
zinc,time spent in the quadrant of the maze where the platform was present (Morris water maze),"day 6, non-stressed mice only, trending stress x zinc interaction F(1,39)=4.002, p=0.052, zinc intranasally after injury vs vehicle, FIG. 11",beneficial effect
same,number of platform crossings (Morris water maze),"effect only for stressed mice, stress x zinc interaction F(1,39)=4.207, p=0.047, zinc intranasally after injury vs vehicle, FIG. 10",significantly increased
same,latency in locating the maze platform (Morris water maze),"stressed and non-stressed, zinc intranasally immediately after each injury vs vehicle control (water), F(1,39)=2.184, p=0.147, FIG. 9",did not differ
